{"source": "paper PMC8064871", "about": "(International Journal of Biological Macromolecules, 2021)", "biological_target": "T1, human chymotrypsin-C (CTRC) (Homo sapiens, UniProt Q99895)", "T1 sequence (Q99895 30-268)": "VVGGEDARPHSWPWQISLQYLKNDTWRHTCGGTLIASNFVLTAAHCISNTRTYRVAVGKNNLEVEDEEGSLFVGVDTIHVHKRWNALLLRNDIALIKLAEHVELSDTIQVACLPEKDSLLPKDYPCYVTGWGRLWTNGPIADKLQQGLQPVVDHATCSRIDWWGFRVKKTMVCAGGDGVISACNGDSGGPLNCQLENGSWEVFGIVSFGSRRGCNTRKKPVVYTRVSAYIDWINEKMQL", "test": "In vitro assessment of human chymotrypsin C", "assay_type": "biochemical", "conditions": "0, 1, 10, 100 µM; 30 min at 37 °C; OD405", "data": [{"molecule": "CC1=CC(=O)c2ccccc2C1=O", "note": "[Entry 1, 2-Methyl-1,4-naphthoquinone (vitamin K3), reference compound]", "values": [{"measurement": "inhibition of human CTRC activity (in words)", "value": "selectively inhibit SARS-CoV-2 and SARS-CoV 3CL^pro, rather than human CTRC"}]}]}
